Measurements taken from patent US9695218B2, “Pharmaceutical composition for preventing or treating ocular surface disease” (INJE UNIVERSITY INDUSTRY-ACADEMIC COOPERATION FOUNDATION, priority 2014, dated 2017).

Assays:
Assay type in all cases: in vivo, New Zealand white rabbits
[1] = tested on: cornea of alkaline burn rabbit; assay: Corneal thickness of H&E-stained tissue sections in corneal alkaline burn rabbit model; conditions: 10th day after treatment, 10 mg/mL instilled 4 times per day, normal 628.0±13.2, alkali burn control 1078.0±30.8
Protocol: (§1) 15 New Zealand white rabbits weighing between 2.0 kg and 2.5 kg were purchased from Samtako (Osan, Korea), and then, were subjected to systemic anesthesia by intramuscular injection of a mixture of ketamine hydrochloride (30 mg/kg body weight, Huons, Jecheon, Korea) and xylazine hydrochloride (2.5 mg/kg, Bayer Korea Ltd., Seoul, Korea) and to topical anesthesia by Alcaine propracaine eye drops (Alcon Inc., Seoul, Korea).
(§2) Afterwards, alkaline burn model was developed by applying an 8 mm filter paper soaked in 1 N NaOH to the right central corneas of rabbits for 1 minute. 7 days later, an increase in corneal angiogenesis and corneal opacity upon alkaline burns was confirmed.
The rabbits were randomly divided into three groups: the alkaline burn group (n=5), the peptide I group (n=5), and the peptide II group (n=5). The alkaline burn group was treated with saline instilled thereto 4 times per day, the peptide I group was treated with 10 mg/mL of peptide SEQ ID NO: 1 instilled thereto 4 times per day, and the peptide II was treated with 10 mg/mL of peptide SEQ ID NO: 2 instilled thereto 4 times per day. The left eyes were used as controls. […]
The corneal thickness of the tissue sections was measured using photographs obtained by the H&E staining and taken with a virtual microscope (NanoZoomer 2.0 RS, Hamamatsu, Japan) according to the NDP view program (Hamamatsu, USA).

[2] = tested on: cornea of alkaline burn rabbit; assay: H&E staining for histological changes in cornea following alkaline burn; conditions: 10th day after treatment, 10 mg/mL instilled 4 times per day
Protocol: as §1, §2
(§3) The rabbits were randomly divided into three groups: the alkaline burn group (n=5), the peptide I group (n=5), and the peptide II group (n=5). The alkaline burn group was treated with saline instilled thereto 4 times per day, the peptide I group was treated with 10 mg/mL of peptide SEQ ID NO: 1 instilled thereto 4 times per day, and the peptide II was treated with 10 mg/mL of peptide SEQ ID NO: 2 instilled thereto 4 times per day. The left eyes were used as controls.
(§4) On the 10th day after the treatment as described above, the H&E staining, the Masson's trichrome staining, and immunohistochemistry were performed to observe the fibrosis, angiogenesis, inflammation, and structural changes of the cornea. […]

[3] = tested on: fibroblast in the stroma of alkaline burn rabbit cornea; assay: Masson's trichrome staining for fibrotic changes of the cornea following alkali burns; conditions: 10th day after treatment, 10 mg/mL instilled 4 times per day
Protocol: as §1, §2, §3, §4

[4] = tested on: cornea of alkaline burn rabbit; assay: Clinical evaluation of corneal angiogenesis and opacification in corneal alkaline burn rabbit model; conditions: 10 mg/mL instilled 4 times per day for 10 days, day 17 after alkaline burn; for corneal opacity score (graded 0 through 3): mean±SD, n=5, saline control 3.0±0.0
Protocol: as §1, §2, §3
7 days after the corneal alkaline burns, clinical evaluation of corneal angiogenesis and opacification was performed.
First, the extent of corneal angiogenesis was scored from 0 through 3, where 0 denotes no angiogenesis, 1 denotes angiogenesis confined to the corneal periphery, 2 denotes angiogenesis extending up to the pupil margin, and 3 denotes angiogenesis extending beyond the pupil margin into the central cornea. In eyes where significant opacification or extensive symblepharon formation caused difficulties in evaluating corneal angiogenesis, a score of 3 was assigned.
In addition, the severity of corneal opacification was graded from 0 through 3, where 0 denotes clear cornea with iris details clearly visualized, 1 denotes partial obscuration of the iris details, 2 denotes iris details poorly seen with the pupil margin just visible, and 3 denotes complete obscuration of iris and pupil details. […]

macrophages = assay: Immunohistochemistry of macrophages in alkaline burn rabbit cornea; conditions: 10 mg/mL instilled 4 times per day, 10th day
Protocol: (§5) Ocular tissue sections of an alkaline burn animal model were cut to a thickness of 6 μm, and then, the tissue sections were used for immunohistochemical analysis.
(§6) First, the tissue sections were fixed in 3.5% paraformaldehyde, permeabilized with 0.1% Triton X-100, blocked with 2% bovine serum albumin (BSA; all from Sigma, St. Louis, Mo.), and incubated overnight with the following primary antibodies; anti-CD31 (1:1,000; Abcam Inc., Cambridge, Mass.), anti-MMP-9, anti-ICMA-1, anti-VCAM-1 (1:1,000; from Bioss Antibodies, Woburn, Mass.), anti-TNFα, anti-NF-κB (1:1,000; all from biorbyt LLC, San Franciso, Calif.) anti-macrophage/monocyte (Abnova Crop., Taipei, Taiwan), and anti-VEGF-A (Abbiotec, San Diego, Calif.).
(§7) Next, the tissue sections were incubated with a secondary antibody for 45 minutes. The immunological reactions therein were visualized with diaminobenzidine (DAB) chromogen, and the tissue sections were counterstained with Mayer's hematoxylin (Sigma) for 30 seconds at room temperature.
(§8) The sections were photographed with a virtual microscope (virtual microscope; NanoZoomer 2.0 RS, Hamamatsu, Japan).
(§9) The rabbits were randomly divided into three groups: the alkaline burn group (n=5), the peptide I group (n=5), and the peptide II group (n=5). […]

CD31 = assay: Immunohistochemistry of angiogenic marker CD31 in alkaline burn rabbit cornea; conditions: 10 mg/mL instilled 4 times per day, 10th day, compared with the peptide I group
Protocol: as §5, §6, §7, §8, §9

TNFα = assay: Immunohistochemistry of inflammatory marker TNFα in alkaline burn rabbit cornea; conditions: 10 mg/mL instilled 4 times per day, 10th day
Protocol: as §5, §6, §7, §8, §9

NF-κB = assay: Immunohistochemistry of NF-κB in alkaline burn rabbit cornea; conditions: 10 mg/mL instilled 4 times per day, 10th day, compared to peptide I treatment
Protocol: as §5, §6, §7, §8, §9

MMP-9 = assay: Immunohistochemistry of inflammatory marker MMP-9 in alkaline burn rabbit cornea; conditions: 10 mg/mL instilled 4 times per day, 10th day, compared to the peptide I group
Protocol: as §5, §6, §7, §8, §9

VEGF = assay: Immunohistochemistry of angiogenic marker VEGF in alkaline burn rabbit cornea; conditions: 10 mg/mL instilled 4 times per day, 10th day, compared with the peptide I group
Protocol: as §5, §6, §7, §8, §9

VCAM-1 = assay: Immunohistochemistry of inflammatory marker VCAM-1 in alkaline burn rabbit cornea; conditions: 10 mg/mL instilled 4 times per day, 10th day
Protocol: as §5, §6, §7, §8, §9

ICAM-1 = assay: Immunohistochemistry of inflammatory marker ICAM-1 in alkaline burn rabbit cornea; conditions: 10 mg/mL instilled 4 times per day, 10th day
Protocol: as §5, §6, §7, §8, §9

Substance	corneal thickness [1] [μm]	histological alterations (epithelial proliferation, infiltration of inflammatory cells, stromal edema, angiogenesis; H&E) [2]	fibrotic changes / population of fibroblast in stroma (Masson's trichrome) [3]	corneal opacity score (graded 0 through 3) [4]	expression of macrophages (macrophages)	expression of CD31 in epithelium, subepithelium and stroma (CD31)	expression of TNFα (TNFα)	expression of NF-κB in stroma (NF-κB)	expression of MMP-9 (MMP-9)	corneal angiogenesis (scored 0 through 3) ([4]; compared to the control group (2.7±0.5))	expression of VEGF in epithelium, subepithelium and stroma (VEGF)	expression of VCAM-1 (VCAM-1)	expression of ICAM-1 (ICAM-1)
GDRGD (Collagen type I, alpha 1) [peptide I, collagen type I α1 based peptide from CDEM, synthesized; used as comparative group]	1066.0±31.7	little effect	little effect on the fibrotic changes	2.1±0.3									
GQDGLAGPK (Collagen type II, alpha 1) [peptide II, collagen type II α1 based peptide isolated from chondrocyte-derived extracellular matrix (CDEM), synthesized]	876.0±37.0	improved	significantly suppressed the population of fibroblast	1.9±0.6	effectively suppressed	significantly decreased	decreased	decreased	suppressed	decreased angiogenesis	significantly decreased	decreased	decreased
